Among the data in patent publication US5618793A, “Nikkomycin analogs” (Schering Corporation, priority 1995, dated 1997) are MIC-R and MIC-S values, retold here.

≈ marks a conversion by molar mass, not a printed value. Read-outs that look alike come from different tables or passages of the source.

The subject of assay [1] is Resistant Strains: Candida albicans C79, C6, C8, C31, C54, C70, C104, C138, C140; Candida stellatoidea C45. Nature of the assay: microtiter minimum inhibitory concentration (MIC) test, resistant strains (MIC-R). It counts as cell-based. The following applies: geometric mean of MICs against resistant strains, YNB pH 5.4, 37° C., 48 hours, lowest concentration preventing visible growth. The protocol:
(§1) In vitro anti-fungal activity was determined in microtiter minimum inhibitory concentration (MIC) tests using Yeast Nitrogen Broth (YNB without amino acids, Difco., Detroit, Mich.) at pH 5.4. Yeasts were grown overnight in Sabouraud Dextrose Broth at 28° C. with shaking, and concentrations adjusted in sterile saline using a spectrophoptometer at 540 mμ. Compounds were dissolved in various vehicles and diluted in media to twice the final concentrations. The Cetus Pro/Pette system was used to serially dilute 50 μl in round bottom 96 well plates (Falcon, Lincoln Park, N.J.). The turbidometrically adjusted yeast suspensions were diluted 1:3,000 in YNB. These dilutions when added to the wells, produced a final inoculum of 3×10^3 /ml. Plates were incubated at 37° C. for 48 hours. MICs were defined as the lowest concentrations of compound that prevented visible growth. MICs were taken against the following organisms and expressed in the table above as the geometric mean.
(§2) MIC-R and MIC-S mean respectively MICs taken against resistant and sensitive strains.
Candida stellatoidea C45

The subject of assay [2] is Sensitive Strains: Candida albicans C141, Candida sp. C2, Candida sp. C109, Candida parapsilosis C67, Candida tropicalis C112, Torulopsis glabrata C95, Candida …. The format is cell-based, Candida spp., Sacchararomyces. As to conditions: geometric mean of MICs against sensitive strains, YNB pH 5.4, 37° C., 48 hours, lowest concentration preventing visible growth. The protocol:
as §1, §2
Candida parapsilosis C67
Candida tropicalis C112
Torulopsis glabrata C95
Candida pseudotropicalis C967
Candida guillermondii C137
Sacchararomyces mutant C147

Turning to `CC(C)=CCCC(C)=CCCC(C)=CCNC(=O)C(NC(=O)C(N)Cc1c[nH]c2ccc(O)cc12)C1OC(n2ccc(=O)[nH]c2=O)C(O)C1O` (centres unmarked) [Compound 15], the MIC-R in assay [1] was found to be 143 µg/mL (≈ 206 µM). In addition, the MIC-S in assay [2] is 362 µg/mL (≈ 523 µM).

Consider `CCCCCCCCCCCCNC(=O)C(NC(=O)C(N)C(C)Cn1ccnc1)C1OC(n2ccc(=O)[nH]c2=O)C(O)C1O` (mixture of isomers) [Compound 11], for which the MIC-R in assay [1] turned out to be 316 µg/mL. This compound also registered an MIC-S in assay [2] of 85 µg/mL.

`CCCCCCCCCCCCNC(=O)C(NC(=O)C(N)CCc1ccc2ccccc2n1)C1OC(n2ccc(=O)[nH]c2=O)C(O)C1O` (centres unmarked) [Compound 16] registered an MIC-R in assay [1] (listed as drawing 72) of 294 µg/mL (≈ 441 µM). The compound further registered an MIC-S in assay [2] (listed as drawing 72) of 239 µg/mL (≈ 358 µM).

Compound `CCCCCCCCCCCCNC(=O)C(NC(=O)C(N)CCc1ccc2ccccc2n1)C1OC(n2ccc(=O)[nH]c2=O)C(O)C1O` (centres unmarked) [Compound 17] yielded an MIC-R in assay [1] (listed as drawing 73) of 21 µg/mL (≈ 31.5 µM). For the same compound, the MIC-S in assay [2] (listed as drawing 73) amounted to 158 µg/mL (≈ 237 µM).

In assay [1], `NC(Cc1c[nH]c2ccc(O)cc12)C(=O)NC(C(=O)NCc1ccccc1)C1OC(n2ccc(=O)[nH]c2=O)C(O)C1O` (centres unmarked) [Compound 20] returned an MIC-R greater than 256 µg/mL. In assay [2], the MIC-S was greater than 256 µg/mL.

On to `CCCCCCCCCCCCNC(=O)C(NC(=O)[C@@H](N)C(C)Cc1ccc(OC)cc1)C1OC(n2ccc(=O)[nH]c2=O)C(O)C1O` (some centres unmarked) [Compound 12, 6'-Dodecylamido-5-N-(2-S-amino-3-R,S-methyl-4-p-methoxyphenyl-butyryl) UPOC], for which the MIC-R in assay [1] worked out at 28 µg/mL (≈ 42.4 µM). In addition, the MIC-S in assay [2] came out at 208 µg/mL (≈ 315 µM).

In the case of `CCCCCCCCCCCCN(OCc1ccccc1)C(=O)C(NC(=O)C(N)Cc1c[nH]c2ccc(O)cc12)C1OC(n2ccc(=O)[nH]c2=O)C(O)C1O` (centres unmarked) [Compound 14], the MIC-R in assay [1] worked out at 28 µg/mL (≈ 36.7 µM). Moreover, the MIC-S in assay [2] amounted to 119 µg/mL (≈ 156 µM).

Turning to `CCCCCCCCCCCCNC(=O)C(NC(=O)C(N)Cc1ccc(OC)cc1)C1OC(n2ccc(=O)[nH]c2=O)C(O)C1O` (centres unmarked) [Compound 23], the MIC-R in assay [1] was 9.8 µg/mL (≈ 15.5 µM). Moreover, the MIC-S in assay [2] came to 56 µg/mL (≈ 88.6 µM).

Consider `CCCCCCCCCCCCNC(=O)C(NC(=O)C(N)C(C)Cc1ccc(O)cn1)C1OC(n2ccc(=O)[nH]c2=O)C(O)C1O` (centres unmarked) [Compound 10], for which, in assay [1], the MIC-R came to 147 µg/mL (≈ 227 µM). Moreover, the MIC-S in assay [2] worked out at 478 µg/mL (≈ 739 µM).

As for `CCCCNC(=O)[C@@H](NC(=O)[C@@H](N)Cc1c[nH]c2ccc(O)cc12)[C@H]1O[C@@H](n2ccc(=O)[nH]c2=O)[C@H](O)[C@@H]1O` [Compound 1], the MIC-R in assay [1] is greater than 4096 µg/mL. In assay [2], this compound showed an MIC-S greater than 4096 µg/mL.

The compound `CCCCCCCCCCCCCCNC(=O)C(NC(=O)C(N)Cc1c[nH]c2ccc(O)cc12)C1OC(n2ccc(=O)[nH]c2=O)C(O)C1O` (centres unmarked) [Compound 9] yielded an MIC-R in assay [1] greater than 256 µg/mL. In addition, the MIC-S in assay [2] amounted to 147 µg/mL (≈ 215 µM).

In assay [1], `CCCCCCCCCCCCNC(=O)C(NC(=O)C(N)Cc1csc2ccc(O)cc12)C1OC(n2ccc(=O)[nH]c2=O)C(O)C1O` (single isomer, unassigned) [Compound 21] returned an MIC-R of 208 µg/mL (≈ 309 µM). Besides, the MIC-S in assay [2] is 158 µg/mL (≈ 234 µM).

In assay [1] (listed as drawing 80), `CCCCCCCCCCCCNC(=O)C(NC(=O)C(N)Cc1csc2ccc(O)cc12)C1OC(n2ccc(=O)[nH]c2=O)C(O)C1O` (single isomer, unassigned) [Compound 22] registered an MIC-R greater than 256 µg/mL. In assay [2], this compound yielded an MIC-S of 158 µg/mL (≈ 234 µM).

For the compound `CCCCCCCCCCNC(=O)C(NC(=O)C(N)Cc1c[nH]c2ccc(O)cc12)C1OC(n2ccc(=O)[nH]c2=O)C(O)C1O` (centres unmarked) [Compound 13], the MIC-R in assay [1] is 181 µg/mL (≈ 288 µM). For the same compound, the MIC-S in assay [2] was found to be 388 µg/mL (≈ 617 µM).

Consider `CCCCCCCCCCCCNC(=O)C(NC(=O)C(N)Cc1cn(C)c2ccccc12)C1OC(n2ccc(=O)[nH]c2=O)C(O)C1O` (centres unmarked) [Compound 25], for which, in assay [1], the MIC-R was greater than 256 µg/mL. The MIC-S in assay [2] is greater than 256 µg/mL.

In assay [1], `CCCCCCCCCCCCNC(=O)C(NC(=O)C(N)c1ccccc1)C1OC(n2ccc(=O)[nH]c2=O)C(O)C1O` (centres unmarked) [Compound 24] came in with an MIC-R of 18 µg/mL (≈ 30.6 µM). In assay [2], this compound came in with an MIC-S of 194 µg/mL (≈ 330 µM).

`CCCCCCCCCCCCNC(=O)C(NC(=O)C(N)Cc1c[nH]c2ccc(O)cc12)C1OC(n2ccc(=O)[nH]c2=O)C(O)C1O` (centres unmarked) [Compound 3, 6'-Dodecylamido-5-N-(5-hydroxytryptophanyl)UPOC] showed an MIC-R in assay [1] of 23 µg/mL (≈ 35 µM). Further, the MIC-S in assay [2] was determined as 478 µg/mL (≈ 728 µM).

`CCCCCCCCCCCCCCCCCCNC(=O)C(NC(=O)C(N)Cc1c[nH]c2ccc(O)cc12)C1OC(n2ccc(=O)[nH]c2=O)C(O)C1O` (centres unmarked) [Compound 4] yielded an MIC-R in assay [1] greater than 2048 µg/mL. The same compound registered an MIC-S in assay [2] greater than 2048 µg/mL.

As to `CCCCCCCCCCCCN(O)C(=O)C(NC(=O)C(N)Cc1c[nH]c2ccc(O)cc12)C1OC(n2ccc(=O)[nH]c2=O)C(O)C1O` (centres unmarked) [Compound 18], the MIC-R in assay [1] was found to be 39 µg/mL (≈ 58 µM). The MIC-S in assay [2] was found to be 239 µg/mL (≈ 355 µM).
